From patent US20250026725A1, “HYDRATE CRYSTAL OF 5-CHLORO-4-(3-CHLORO-4- METHYLPHENYL)-1H-IMIDAZOLE-2-CARBONITRILE” (ISHIHARA SANGYO KAISHA, LTD., priority 2021, published 2025)
Converted amounts (≈) assume the structure as drawn.

Columns and labels:
[1] = test system: Malassezia pachydermatis (IFM56528); test: Antifungal activity test, minimum fungicidal concentration (MFC100); type: cell-based; conditions: 1 minute contact, culture 32° C. for 72 hours, read-out: Minimal fungicidal concentration (MFC100)
Protocol: Malassezia pachydermatis that had been cultured on a Sabouraud medium (1% peptone, 4% […], 1.5% agar) for 5 to 7 days was suspended in physiological saline to prepare so as to have an absorbance of 0.025 at 600 nm. The compound under test dissolved in DMSO was added thereto so as to have final concentrations of 200, 100, 50, and 25 ppm. 1 minute later, 10 μL of suspension and 10 mL of physiological saline were added to a syringe and stirred, and then the mixture was filtered and washed by connecting to a 37 mm quality monitor (manufactured by Pall Corporation) and washed. As such, membrane filters were permeated with the Sabouraud medium, culturing was performed at 32° C. for 72 hours, the presence or absence of the development of colonies was examined to determine a minimum fungicidal concentration (MFC100). A minimum fungicidal concentration (MFC100) for Malassezia pachydermatis (IFM56528) was determined in the same method as in Test Example 9 except that the hydrate crystal (Production Example 2) was used as the compound under test.

Moisture absorption test = type: physicochemical
Protocol: An anhydrous crystal sample was placed in a container (glass weighing bottle or paper bag) in such a manner that it was in direct contact with the damp. […] In addition, a sample for the hydrate crystal (Production Example 1) was also preserved at 60° C./80% RH, and the change in moisture content was observed through the change in weight or Karl Fischer moisture measurement.

[2] = 40° C./75% RH, weighing bottle, 14 days
[3] = 40° C./75% RH, weighing bottle, 28 days
[4] = 40° C./75% RH, weighing bottle, 28 days, listed as Anhydrate crystal

- Moisture content (Moisture absorption test; 25° C./80% RH, paper bag, 0 days): 0.1%
- Weight change (Moisture absorption test; 25° C./80% RH, paper bag, 14 days): 0.6%
- Weight change (Moisture absorption test; 25° C./80% RH, paper bag, 28 days): 2.2%
- Weight change (Moisture absorption test; 25° C./80% RH, paper bag, 35 days): 3.3%
- Weight change (Moisture absorption test; 25° C./80% RH, paper bag, 43 days): 4.2%
- Weight change (Moisture absorption test; 25° C./80% RH, paper bag, 49 days): 4.7%
- Weight change (Moisture absorption test; 25° C./80% RH, paper bag, 49 days, listed as Anhydrate crystal): 4.7%
- Moisture content (Moisture absorption test; 40° C./75% RH, weighing bottle, 0 days): 0.1%
- Weight change (Moisture absorption test; 40° C./75% RH, weighing bottle, 7 days): 3.5%
- Moisture content (Moisture absorption test; [2]): 5.7%
- Weight change (Moisture absorption test; [2]): 5.0%
- Weight change (Moisture absorption test; 40° C./75% RH, weighing bottle, 21 days): 6.4%
- Moisture content (Moisture absorption test; [3]): 6.1%
- Weight change (Moisture absorption test; [3]): 6.7%
- Moisture content (Moisture absorption test; [4]): 6.1%
- Weight change (Moisture absorption test; [4]): 6.7%
Structure (SMILES): Cc1ccc(-c2nc(C#N)[nH]c2Cl)cc1Cl [Anhydrous crystal, 5-chloro-4-(3-chloro-4-methylphenyl)-1H-imidazole-2-carbonitrile]
- MFC [1]: 50 µg/mL (≈ 198 µM)
